Consider twelve compounds from ChEMBL document CHEMBL3046540, “Statistically validated QSAR study of some antagonists of the human CCR5 receptor using least square support vector machine based on the genetic algorithm and factor analysis” (Med Chem Res, 2013).

The structures appear in SMILES notation.

The target in the assay is C-C chemokine receptor type 5 (Homo sapiens, UniProt P51681). The assay can be described thus: Antagonist activity at Homo sapiens (human) CCR5 receptor.
Chain of C-C chemokine receptor type 5 (P51681 whole entry): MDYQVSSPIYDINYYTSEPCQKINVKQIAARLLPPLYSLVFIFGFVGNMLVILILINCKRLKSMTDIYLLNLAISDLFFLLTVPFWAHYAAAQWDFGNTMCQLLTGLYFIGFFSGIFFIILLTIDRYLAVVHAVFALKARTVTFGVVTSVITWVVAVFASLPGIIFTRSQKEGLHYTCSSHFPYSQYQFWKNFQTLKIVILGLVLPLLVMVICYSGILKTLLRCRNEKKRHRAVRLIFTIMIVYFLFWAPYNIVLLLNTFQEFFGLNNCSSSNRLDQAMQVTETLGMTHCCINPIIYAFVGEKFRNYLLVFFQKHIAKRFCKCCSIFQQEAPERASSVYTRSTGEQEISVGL
The IC50 is the concentration at which inhibition is half-maximal. Turning to `C=CCN(C(=O)c1ccc([N+](=O)[O-])cc1)C1CCN(CCC(CN(C)S(=O)(=O)c2ccccc2)c2ccccc2)CC1` (configuration not stated), inhibition was half-maximal at 2 nM (IC50).

As to `C=CCN(C(=O)Nc1ccc([N+](=O)[O-])cc1)C1CCN(CCC(CN(C)S(=O)(=O)c2ccccc2)c2ccccc2)CC1` (configuration not stated), the IC50 was 0.759 nM. On to `CCN(C(=O)NCc1ccccc1)C1CCN(CCC(CN(C)S(=O)(=O)c2ccccc2)c2ccccc2)CC1` (configuration not stated), for which the IC50 was 100 nM. The same measure for `CCCN(C(=O)NC)C1CCN(CCC(CN(C)S(=O)(=O)c2ccccc2)c2ccccc2)CC1` (configuration not stated): 1000 nM. In turn, `CCCN(C(=O)OCc1cccc(C(N)=O)c1)C1CCN(CC[C@H](CN(C)S(=O)(=O)c2ccccc2)c2ccccc2)CC1` gave an IC50 of 0.794 nM. In the case of `CCN(C(=O)OC)C1CCN(CC[C@H](CN(C)S(=O)(=O)c2ccccc2)c2cccc(Cl)c2)CC1`, it took 39.8 nM to reach half-maximal inhibition (IC50).

Turning to `CN(CC(CCN1CCC(NC(=O)NCc2ccccc2)CC1)c1ccccc1)S(=O)(=O)c1ccccc1` (configuration not stated), the IC50 was 2.51 nM. `COC(=O)NC1CCN(CC[C@H](CN(C)S(=O)(=O)c2ccccc2)c2ccccc2)CC1` had an IC50 of 1000 nM. For `CCCN(C(=O)OCc1ccc(C(N)=O)cc1)C1CCN(CC[C@H](CN(C)S(=O)(=O)c2ccccc2)c2ccccc2)CC1` the value was 3.02 nM. The same measure for `CCCN(C(=O)OCc1ccccc1C)C1CCN(CC[C@H](CN(C)S(=O)(=O)c2ccccc2)c2ccccc2)CC1`: 1.51 nM.

`CCCN(C(=O)OCc1ccccc1)C1CCN(CC[C@H](CN(C)S(=O)(=O)c2ccccc2)c2ccccc2)CC1` gave an IC50 of 3.98 nM.

`CNC(=O)NC1CCN(CCC(CN(C)S(=O)(=O)c2ccccc2)c2ccccc2)CC1` (configuration not stated) gave an IC50 of 120 nM.
